Assay results as given in article PMC5350466 (mBio, 2017).
Converted amounts (≈) assume the structure as drawn.

Legend:
BcnA [1] = target: T1, BcnA (Burkholderia cenocepacia, UniProt B4EE32); assay: In vitro binding assay: Nile red displacement from BcnA; conditions: against 1.5 µM Nile red binding to 1.5 µM BcnA in PBS; read-out: binding inhibition constant (Ki)
T1 sequence (B4EE32 27-186): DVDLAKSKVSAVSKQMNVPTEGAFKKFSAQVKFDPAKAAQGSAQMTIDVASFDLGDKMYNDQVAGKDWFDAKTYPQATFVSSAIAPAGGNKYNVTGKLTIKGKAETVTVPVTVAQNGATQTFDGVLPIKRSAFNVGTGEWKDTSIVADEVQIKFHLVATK
Experimental: In vitro binding assays were performed as previously described ([23]), with a few modifications. Purified BCNs were prepared in phosphate-buffered saline (PBS, pH 7.4). Phospholipids and Nile red were prepared in DMSO. […] All spectra were corrected for background fluorescence determined from probe-into-buffer titrations. Fluorescence was measured with a Cary Eclipse fluorescence spectrophotometer (Varian) set at an excitation wavelength (λex) specific for each probe, as follows: Nile red, 550 nm; BODIPY phospholipids, 500 nm for fatty acyl BODIPY-labeled phosphocholine and 505 nm for head group BODIPY-labeled phosphoethanolamine. The emission spectrum for each probe was collected across the following wavelengths (λem): Nile red, 590 to 750 nm; BODIPY phospholipids, 510 to 665 nm. The background-corrected binding fluorescence with each probe was fitted to a one-site binding model as previously described for human AGP ([23]). The equilibrium binding affinity constant for the probe-BCN complex (Kd), the probe concentration needed to achieve half-maximum binding at equilibrium, was determined by nonlinear least-squares regression analysis of the binding isotherms with GraphPad Prism v 5.0 software (GraphPad Software, Inc.).
For probe displacement experiments, antibiotic solutions and fat-soluble vitamins (prepared in DMSO) diluted in PBS, pH 7.4, were titrated against a BCN-probe complex at a saturating concentration necessary to obtain the maximum fluorescence when bound. Probe displacement was measured as the corresponding decrease in fluorescence upon the progressive increase in the antibiotic concentration. The binding inhibition constants (Kis) of the test compounds were determined by nonlinear regression analysis with competition-binding equations for one-site binding calculated by GraphPad Prism v 5.0 software. The lower the Ki values, the higher the affinity of the molecule for BcnA. All fluorometric assays were conducted in duplicate three independent times.

BcnA [2] = target: T1, BcnA; assay: Antibiotic bioassay of sequestration by BcnA; format: binding; conditions: 1.5 µM BcnA, 30 min at 37°C, 10-kDa cutoff filtration
Experimental: Antibiotic test solutions with or without 1.5 µM BcnA were incubated for 30 min at 37°C with rotation. The solutions were filtered through filter units with a 10-kDa cutoff by centrifugation at 7,500 × g, at 4°C for 10 min. The antibiotic concentrations in the filtrates were determined by spotting 5 µl onto sterile filter discs placed on agar plates swabbed with the test bacteria. Petri dishes (15-cm diameter) containing 40 ml of LB agar were swabbed with bacterial suspensions with an OD600 of 0.04. The plates were incubated at 37°C for 24 h. Each plate included four discs containing standard concentrations of the antibiotic alongside the discs impregnated with test and control antibiotic solutions. E. coli DH5α was used for bioassays of PmB, norfloxacin, ceftazidime, and gentamicin, and S. aureus USA300 was used for bioassays of rifampin. The theoretical disc contents of the test antibiotic solutions were 10, 5, 2, 30, and 10 µg for PmB, rifampin, norfloxacin, ceftazidime, and gentamicin, respectively. Standard antibiotic discs contained a 2-fold higher concentration than, the same concentration as, or a 2- or 4-fold lower concentration than the test antibiotic discs. After incubation, the clear zones of inhibition were measured and the antibiotic concentrations were determined from standard curves constructed from the standard antibiotic discs.

bcnA::luxCDABE = assay: Luciferase expression assay, bcnA::luxCDABE; format: cell-based, Burkholderia cenocepacia; conditions: antibiotic at concentrations near the MIC (sublethal), 3 h
B. cenocepacia K56-2 = assay: MIC by broth microdilution, parental strain; format: cell-based, Burkholderia cenocepacia; conditions: broth microdilution in cation-adjusted MHB at 18 to 24 h; for MIC: Burkholderia cenocepacia, K562
bcnB::luxCDABE = assay: Luciferase expression assay, bcnB::luxCDABE; format: cell-based, Burkholderia cenocepacia; conditions: antibiotic at concentrations near the MIC (sublethal), 3 h
K56-2 pSCRhaB2 = assay: MIC by E test; format: cell-based; conditions: Burkholderia cenocepacia, 24 h, read-out: MIC by Etest, K56-2 pSCRhaB2
ΔbcnA pSCRhaB2 = assay: MIC by E test; format: cell-based, Burkholderia cenocepacia; conditions: 24 h
ΔbcnA pbcnA (Sa) = assay: MIC by E test; format: cell-based, Burkholderia cenocepacia; conditions: 24 h
[3] = test system: B. cenocepacia ΔbcnA mutant; assay: MIC by broth microdilution, ΔbcnA mutant; format: cell-based, Burkholderia cenocepacia
[4] = test system: B. cenocepacia ΔbcnB mutant; assay: MIC by broth microdilution, ΔbcnB mutant; format: cell-based, Burkholderia cenocepacia; conditions: broth microdilution in cation-adjusted MHB at 18 to 24 h

| Compound | Ki (BcnA [1]) | antibiotic sequestration by BcnA (BcnA [2]) | expression of bcnA::luxCDABE upon exposure to antibiotic (bcnA::luxCDABE) | MIC (B. cenocepacia K56-2) | further results |
| --- | --- | --- | --- | --- | --- |
| Cc1c(C)c2c(c(C)c1O)CC[C@@](C)(CCC[C@H](C)CCC[C@H](C)CCCC(C)C)O2 [Vit E, α-tocopherol] | 0.417 µM |  |  |  |  |
| menaquinone [Vit K2] | 0.569 µM |  |  |  |  |
| CCn1cc(C(=O)O)c(=O)c2cc(F)c(N3CCNCC3)cc21 [Norfloxacin, norfloxacin] | 400 µM | sequestered | upregulated | 128 µg/mL (≈ 401 µM) | expression of bcnB::luxCDABE upon exposure to antibiotic (bcnB::luxCDABE): increased |
| CN(C)c1ccc(O)c2c1C[C@H]1C[C@H]3[C@H](N(C)C)C(O)=C(C(N)=O)C(=O)[C@@]3(O)C(O)=C1C2=O [Minocycline, minocycline] |  |  |  | 2 µg/mL (≈ 4.37 µM) |  |
| CO[C@H]1/C=C/O[C@@]2(C)Oc3c(C)c(O)c4c(O)c(c(/C=N/N5CCN(C)CC5)c(O)c4c3C2=O)NC(=O)/C(C)=C\C=C\[C@H](C)[C@H](O)[C@@H](C)[C@@H](O)[C@@H](C)[C@H](OC(C)=O)[C@@H]1C [Rifampicin, rifampin] | 16.5 µM | sequestered | upregulated | 256 µg/mL (≈ 311 µM) | MIC (K56-2 pSCRhaB2): ≥ 64 µg/mL; MIC by Etest, ΔbcnA pSCRhaB2 (ΔbcnA pSCRhaB2): 16 μg/ml; MIC by Etest, ΔbcnA pbcnA (Sa) (ΔbcnA pbcnA (Sa)): ≥ 64 µg/mL |
| CC[C@H]1OC(=O)[C@H](C)[C@@H](O[C@H]2C[C@@](C)(OC)[C@@H](O)[C@H](C)O2)[C@H](C)[C@@H](O[C@@H]2O[C@H](C)C[C@H](N(C)C)[C@H]2O)[C@](C)(O)C[C@@H](C)CN(C)[C@H](C)[C@@H](O)[C@]1(C)O [Azithromycin, azithromycin] |  |  |  | 64 µg/mL (≈ 85.4 µM) |  |
| C[C@@H](O)[C@H]1C(=O)N2C(C(=O)O)=C(S[C@@H]3CN[C@H](C(=O)N(C)C)C3)[C@H](C)[C@H]12 [Meropenem, meropenem] |  |  |  | 1 µg/mL (≈ 2.61 µM) |  |
| CC(C)(O/N=C(\C(=O)N[C@@H]1C(=O)N2C(C(=O)[O-])=C(C[n+]3ccccc3)CS[C@H]12)c1csc(N)n1)C(=O)O [Ceftazidime, ceftazidime] | 16900 µM | sequestered | upregulated | 32 µg/mL (≈ 58.5 µM) | MIC (K56-2 pSCRhaB2): 8 µg/mL (≈ 14.6 µM); MIC by Etest, ΔbcnA pSCRhaB2 (ΔbcnA pSCRhaB2): 2 μg/ml; MIC by Etest, ΔbcnA pbcnA (Sa) (ΔbcnA pbcnA (Sa)): 8 µg/mL (≈ 14.6 µM); expression of bcnB::luxCDABE upon exposure to antibiotic (bcnB::luxCDABE): increased |
| O=C(O)c1cn(C2CC2)c2cc(N3CCNCC3)c(F)cc2c1=O [Cipro, ciprofloxacin] |  |  |  |  | MIC (K56-2 pSCRhaB2): 4 µg/mL (≈ 12.1 µM); MIC by Etest, ΔbcnA pSCRhaB2 (ΔbcnA pSCRhaB2): 2 μg/ml; MIC by Etest, ΔbcnA pbcnA (Sa) (ΔbcnA pbcnA (Sa)): 4 µg/mL (≈ 12.1 µM) |
| COc1cc(Cc2cnc(N)nc2N)cc(OC)c1OC [Trimethoprim, trimethoprim] |  |  |  | 8 µg/mL (≈ 27.6 µM) |  |
| CNC(C)C1CCC(N)C(OC2C(N)CC(N)C(OC3OCC(C)(O)C(NC)C3O)C2O)O1 (centres unmarked) [Gentamicin, gentamicin] |  | not | remained unchanged | 2050 µg/mL (≈ 4290 µM) |  |
| polymyxin B [PmB] |  | sequestered | upregulated |  | MIC K56-2 (B. cenocepacia K56-2): ≥ 4096 µg/mL; MIC ΔbcnA ([3]; broth microdilution in cation-adjusted MHB at 18 to 24 h): 2048 µg/mL; MIC reduction in the ΔbcnA mutant ([3]; ΔbcnA mutant relative to parental strain): 4 fold; MIC ΔbcnB [4]: ≥ 4096 µg/mL |
